Two molecules from patent US20140120181A1, “COMPOSITION COMPRISING PHOSPHATIDYLCHOLINE AS AN ACTIVE INGREDIENT FOR ATTENUATING TOXICITY OF ANTICANCER AGENT” (AMI Pharm Co., Ltd., priority 2011, published 2014) can be followed below.

“Also recorded” adds a separate entry of the source.

Data set [1] can be described thus: Measurement of body weight change during the test period. Format: in vivo, SD rats. Conditions: for change of body weight: 6 days. The method, then: 6-week aged male SD rats (albino S.D rat) were bought, stabilized for 1 week, and then divided into 6 groups noted in [table 1] for the test. Breeding environment conditions of 24±2° C., and 12-hour light-dark cycles were maintained, and non-antibiotic general solid feed was used.
For all groups, an agent was administered through intraperitoneal injection.
They were bred while changes in their body weights were measured for 6 days. Then, after they were euthanized, their blood samples 5 cc were collected by a cardiac puncture, and their kidneys were extracted for used in a test.
During the test period, a body weight of the test group was measured.

A further data set has as its system kidney tissues. As to the kind of experiment: Observation of a morphological change in kidney tissues (H&E, optical microscope). Format: in vivo, SD rats. Conditions: CDDP 5 mg/kg i.p. alone (group 3), FIG. 3-B. The text has this:
A rats kidney obtained from Example <1-1> was fixed in 10% neutral formalin, sliced by microtechnique, and subjected to haematoxylin & eosin staining through a general tissue processing process. Each of the stained kidney tissues was observed by an optical microscope.

Data set [2] relates to BUN (blood urea nitrogen) and creatine. As to the kind of experiment: Analysis of kidney function (serum BUN and creatine), oral administration of PC. Format: in vivo, Wistar-Hanover rats. The settings on record: cisplatin 6 mg/kg i.p. alone (group 13), 6 days, FIG. 4. The method, then:
Cisplatin and phosphatidylcholne were used as same as Example 1. But, phosphatidylcholne was suspended in 100 mg/ml of distilled water.
Thirty-six of 6-week-old adult male Wistar-Hanover rats (Nara-biotechnology, Seoul, Korea) were purchased and quarantined for 1 week and divided into 6 groups as shown in Table 4. They were maintained at 22±2° C. in 12 hour light dark cycle, and were given a normal laboratory diet (Purina. Korea) and fresh water ad libitum. Their body weight were 200˜220 g. After quarantine period, rats were fasted for 24 hours prior to injection of first phosphatidylcholine, but were allowed free access to water throughout.
In all groups, saline and cisplatin were injected intraperitoneally and phosphatidylcholine was administered orally. […]
Blood collected in Example <2-1> was centrifuged at 4000 rpm for 10 min and serum was separated. The level of BUN (blood urea nitrogen) and creatine in serum was measured.
The level of BUN was measured by Urase-GLDH method (Laboratory reference values. Urea nitrogen (BUN). Rochester, Minn.: Mayo Foundation for Medical Education and Research; November 2010), creatine was measured by Jaffe method (Jaffe method, Lamb E et al, tiez textbook of clinical chemistry and molecular diagnosis, St. louis; elsevier saunders, 2006; 791-801) and the contents were measured Beckman Coulter AU5421 (Beckman Coulter, USA).

Data set [3] relates to MDA (malondialdehyde) in kidney tissue. The data set can be described thus: Quantification of lipid peroxidation (MDA) in kidney tissue. Format: in vivo, Wistar-Hanover rats. The settings on record: cisplatin 6 mg/kg i.p. only (group 13), FIG. 5. As for the experimental part: (§1) Kidney samples collected from example <2-1> were immediately removed, washed in 0.9% saline and weighed. The kidneys were the mince with scissors, were homogenized in 0.1M Tris-HCl buffer (pH 7.4). The homogenization was carried out in Teflon-glass homogenizer (Bandelin, Germany) to obtain 1:10 (w/v) dilution. The homogenate was stored at −70° C. until analysis.
Degradation products of lipid peroxidate comprise a lot of carbonyl compounds and the representative is malondialdehyde, MDA. Therefore, the level of lipid peroxidation can be measured by quantification of MDA.
For quantification of MDA, the method of Buege and Aust (1978) were used. The samples were centrifuged at 12,000 g at 4° C. for 15 min, then 0.3 ml supernatant was removed and mixed with 0.9 ml of 8% trichloroacetic acid (TCA). The sample was again centrifuged at 10,000 g at 4° C. for 5 min. A 1 ml aliquot of supernatant was added to 0.25 ml of 1% TBA, and the resulting solution was heated at 100° C. for 20 min. […] After centrifugation at 3,000 g at 4° C. for 5 min, 1 ml of the n-butanol phase was isolated and the absorbance at 532 nm was measured. The standard curve of MDA was calculated from the absorbance and the amount of MDA per weight of tissue was measured and it is shown in FIG. 5A.
MDA content was calculated with MDA standards (Buege and Aust 1978).

In data set [4] the test system is GSH (glutathione) in kidney tissue. As to the kind of experiment: Quantification of GSH (glutathione) in kidney tissue. Format: in vivo, Wistar-Hanover rats. Conditions: cisplatin 6 mg/kg i.p. only (group 13), FIG. 6. As for the experimental part: as §1
The total GSH content of kidney tissue prepared in the Example <2-3> was determined using a modification of the method of Beutler et al. (Beutler, Duron et al. 1963). The method uses principle that when DTNB (5′5-dithiobis-2-nitro-benzoic acid) and GHS react, 2-nitro-5-thiobenzoic acid (yellow color) are produced. Therefore, the concentration of GSH can be determined by measuring absorbance at 412 nm.
A mitochondrial fraction was prepared by centrifugation at 600 g for 5 mins and samples were added to 5% of metaphosphoric acid (MPA) and allowed to stand for 5 mins to precipitate proteins. 1M of Phosphate buffer (pH 7.0) was added to proteins in the volumetric ratio of 1:4 for homogenization and DTNB (5′5-dithiobis-2-nitro-benzoic acid) were added to proteins in the volumetric ratio of 8:5 for color development. GSH was determined by measuring absorbance at 415 nm (shimadzu UV-1240) and absolute concentrations were calculated using a GSH standard (Sigma, USA).

Data set [5] concerns catalase, GPx (glutathione peroxidase), SOD (superoxide dismutase). As to the kind of experiment: Activity of catalase, GPx, SOD in kidney tissue. Conditions: cisplatin 6 mg/kg i.p. only (group 13), FIG. 7. Format: in vivo, Wistar-Hanover rats. As for the experimental part: as §1
The activities of catalase, GPx, SOD which are anti-oxidative enzymes in kidney tissue were measured by a commercial kit.
Since catalase decomposes H2O2 into water and oxygen, the activity of CAT was measured through decreased absorbance by decomposition of H2O2. The absorbance was measured by using catalase assay kit (Sigma, CAT #100).
The activity of GPx was measured by using Glutathione peroxidase cellular activity assay kit CGP-1 (Sigma Aldrich, Cat. #CGP1). […] The decrease in NADPH absorbance measured at 340 nm, during the oxidation of NADPH to NADP is was indicative of GPx activity.
The activity of SOD is measured using the SOD assay kit (19160 SOD determination kit, Fluka/sigma Aldrich). The amount inhibiting 50% of xanthine oxidase activity per 1 mg of protein was set as 1 unit and the absorbance was measured at 450 nm.

The subject of data set [6] is BUN (blood urea nitrogen) and creatinine. As to the kind of experiment: Test on a kidney function (serum BUN and creatinine), cisplatin nephrotoxicity, intra-peritoneal PC. Format: in vivo, SD rats. The settings on record: PC i.p. 1 hour after CDDP 5 mg/kg i.p.
Experimental: The separated serum was used to measure BUN (blood urea nitrogen) and creatinine.
The measurement of BUN was carried out by using a BUN measuring kit (Young dong diagnostics) in the same manner as described below. A urea agent 0.1 ml was mixed with buffer 20 ml to prepare enzyme buffer, and the prepared enzyme buffer was added to each of 2 test tubes. To one of the test tubes, a to-be-tested serum sample 0.02 ml was added, and to the other test tube, a control reference solution [containing urea-N 60 mg/100 ml] 0.02 ml was added, followed by culturing at 37° C. for 15 min. Then, each test tube was added with chromogenic solution 2 ml, and cultured at 37° C. for 5 min again. By measuring the absorbance at 570 nm, the level of produced BUN was measured.
The measurement of creatinine was carried out by using a creatinine measuring kit (young dong diagnostics) in the same manner as described below. […] Exactly after 15 min, at 515 nm, absorbency was measured.
Another data set has as its system rats. As to the kind of experiment: Lethality after 6 days, CDDP with or without PC. Format: in vivo, SD rats. Conditions: PC 400 mg/kg i.p. alone (group 8). The method, then: As noted in [table 3], a test group was prepared, and administered with a drug. After 6 days, lethality was calculated. An administration method, a test animal and a breeding method, etc. were the same as those in Example <1-1>.

Another data set deals with ICR mice. The data set can be described thus: Lethality reducing effect by paclitaxel (LD50 of paclitaxel with PC pretreatment). Conditions: PC 0, 300, 600 mg/kg i.p. 4 hours before Taxol i.p.; lethality after 24 hours, FIG. 8; listed as phosphatidylcholine. Format: in vivo. As for the experimental part: 6-week aged ICR mice (Samtako, Korea) were bought, and divided into 15 groups noted in table 5. They were stabilized for 20 hrs under conditions of 24±2° C., and 12-hour light-dark cycles while being fed with non-antibiotic general solid feed. […] After being stabilized, the mice were intra-peritoneally injected with the same phosphatidylcholine as that used in <Example 1-1>. After 4 hours, Taxol™ (BMS©, paclitaxel 6 mg/ml) was intra-peritoneally injected to the mice in which its amount was adjusted in such a manner that paclitaxel can be administered in an amount noted in table 5 below.
After 24 hours from administration of taxol, lethality of mice was measured. Based on the measured data on lethality, LD50 (a paclitaxel dose at lethality of 50%) in each of A, B, and C groups was measured.

Consider `N.N.[Cl][Pt][Cl]` [CDDP, cis-dichlorodiammineplatinum], for which, in [1] (CDDP 5 mg/kg i.p. alone (group 3)), the “change of body weight” value is listed as −7.1%. Besides, the “change of body weight” value in [1] (CDDP 5 mg/kg i.p. alone (group 3), listed as cisplatin) is “reduction in body weight”. Besides, in [1] (CDDP 5 mg/kg i.p. alone (group 3), test period), the “body weight decreased by” value is given as “about 7.1%”. Also, the “morphological change in kidney tissues” value in the data set on kidney tissues is “most epithelial cells in a proximal part and a distal part of the kidney showed a necrotic change through an inflammatory reaction”. In data set [2], the “BUN level in serum” value is “increase” and the “creatine level in serum” value is “increase”. The “MDA level in kidney tissue” value in data set [3] is given as “very high compared to control group 11”. Besides, in data set [4], the “level of glutathione in kidney tissue” value was “significantly low compared to control group 11”. Further, the “levels of the anti-oxidative enzymes (catalase, GPx, SOD) in kidney tissue” value in [5] is reported as “significantly reduced compared to control group 11”.
For the molecule `CCCCC/C=C/CCCCCCCC(=O)OC(COC(=O)CCCCCCCCCCCCC)COP(=O)([O-])OCC[N+](C)(C)C` [PC, 1,2-diacyl-L-3-glycerylphosphorylcholine], the “PC dose at which nephrotoxicity caused by CDDP was reduced” value in data set [6] was at least 600 mg/kg. Also, the “change of body weight” value in [1] (PC 400 mg/kg i.p. alone (group 2)) is “+9.2%”. Besides, the lethal rate with rats is recorded as 0%. The LD50 of paclitaxel result in the data set on ICR mice is given as “tends to increase; also recorded: increases depending on dosage of phosphatidylcholine”.
